Laboratory results as given in patent US12699084B2, “Method and means for diagnosing a human sepsis” (Julius-Maximilans-Universität Würzburg, priority 2019, dated 2026).
Where two headings read alike, the source gives them in different places.

What was measured:
Format in all cases: cell-based, human
[1] = system: platelets of sepsis patients; assay: Platelet reactivity by flow cytometry in whole blood (PAC-1 binding, CD62P exposure); conditions: sepsis patients vs healthy controls, day of ICU admission; CRP-XL 0.01 μg/mL, convulxin 0.01 μg/mL, ADP 5 μM
Method: Platelet reactivity assays are shown at the following time points: I: admission day, II: day 5-7 and III: day of ICU discharge. (S)=sepsis patient; (HC)=healthy control. (A-H) Platelet integrin activation (A, C, E, G) and P-selectin exposure (B, D, F, H) were measured upon stimulation with CRP-XL [0.01 μg/mL](A-D), Convulxin [0.01 μg/ml] (E, F) and ADP [5 μM] (G, H) in whole blood by flow cytometry. […] (I-N) Maximum aggregation is depicted upon stimulation with CRP-XL [0.1 μg/mL] (I, J) rhodocytin [1 nM] (K, L) and TRAP-6 [10 μM] (M, N). […] Graphs show median±IQR. Differences were analyzed by Kruskal-Wallis test (A-N). n.s. non-significant, *p>0.05, **p>0.01, ***p>0.001, ****p>0.0001
Platelet reactivity of healthy controls (HC) and patients with sepsis (S) is depicted upon stimulation with CRP-XL standard dose [0.1 μg/mL in aggregometry; 0.01 μg/mL in flow cytometry] and CRP-XL high dose (CRP-XLhi) [1 μg/mL] (A-B) Platelet activation due to integrin activation indicated through PAC-1 binding (A) or P-selectin exposure (B) was assessed in whole blood by flow cytometry. (C-D) Light transmission aggregometry was performed using washed platelets [500 000 1/μL]. Samples were measured for 5 minutes. […] All graphs show median f IQR. […]

[2] = system: platelets of Covid-19 patients
[3] = system: platelets (GPVI-mediated platelet reactivity); assay: Platelet-antibiotic co-incubation in whole blood, P-selectin exposure by flow cytometry; conditions: whole blood of healthy donors, antibiotic at therapeutic peak plasma level, 2 h at 37° C., resting and CRP-XL [0.01 μg/mL] stimulated platelets
Method: Antibiotics were added to whole blood of healthy donors. Incubation was performed for 2 h at 37° C. P-selectin exposure was determined subsequently by flow cytometry on resting (A) and CRP-XL [0.01 μg/mL] stimulated platelets (B). The following drugs were used: piperacillin/tazobactam [P/T=298 μg/mL; 4 μg/mL], vancomycin [V=60 μg/mL], metronidazole [M=25 μg/mL], ciprofloxacin [Cx=4.56 μg/mL].
Whole blood was diluted 1:10 in modified HEPES-buffered Tyrode's solution (NaCl 137 mM, NaHCO312 mM, HEPES 5 mM, KCl 2.7 mM, MgCl2 1 mM, Na2HPO4 0.43 mM, glucose 0.1%, BSA 0.36%). Flow cytometry was conducted using a FACSCelesta™ flow cytometer (Becton Dickinson, Franklin Lakes, NJ, USA). Prior to reactivity measurement, platelets were incubated with respective agonists at indicated concentrations for five minutes. Staining of reticulated platelets was performed using thiazole orange (Sigma Aldrich, St. Louis, MO, USA) for 60 min at room temperature protected from light. After antibody addition samples rested for 15 min in the dark until the reaction was stopped with addition of 1.5 mL FACS-Flow sample buffer (Becton Dickinson).
As all sepsis patients received antibiotic therapy, the present inventors next evaluated whether antimicrobial drugs could reduce GPVI/CLEC-2 reactivity.

[4] = system: washed platelets of sepsis patients; assay: Light transmission aggregometry with washed platelets; conditions: for aggregation at last visit, discharged patients vs patients who died: last available values (discharge/death)
Method: Platelet reactivity assays are shown at the following time points: I: admission day, II: day 5-7 and III: day of ICU discharge. (S)=sepsis patient; (HC)=healthy control. (A-H) Platelet integrin activation (A, C, E, G) and P-selectin exposure (B, D, F, H) were measured upon stimulation with CRP-XL [0.01 μg/mL](A-D), Convulxin [0.01 μg/ml] (E, F) and ADP [5 μM] (G, H) in whole blood by flow cytometry. Representative curves upon CRP-XL stimulation at time point I are shown in A and B. (I-N) Light transmission aggregometry was performed using washed platelets [500 000 1/μL]. (I-N) Maximum aggregation is depicted upon stimulation with CRP-XL [0.1 μg/mL] […] (K, L) and TRAP-6 [10 μM] (M, N). Representative curves are shown in FIG. I, K, M. […] Graphs show median±IQR. Differences were analyzed by Kruskal-Wallis test (A-N). n.s. non-significant, *p>0.05, **p>0.01, ***p>0.001, ****p>0.0001
Platelet reactivity of healthy controls (HC) and patients with sepsis (S) is depicted upon stimulation with CRP-XL standard dose [0.1 μg/mL in aggregometry; 0.01 μg/mL in flow cytometry] and CRP-XL high dose (CRP-XLhi) [1 μg/mL] (A-B) Platelet activation due to integrin activation indicated through PAC-1 binding (A) or P-selectin exposure (B) was assessed in whole blood by flow cytometry. (C-D) Light transmission aggregometry was performed using washed platelets [500 000 1/μL]. Samples were measured for 5 minutes. Representative curves are shown in C. (D-E) Platelets were lysed after 5 minutes of CRP-XL stimulation or resting conditions. Staining was performed with phospho-tyrosine antibody 4g10. 72 kDa band intensity was set in relation to a housekeeping protein in arbitrary units (AU). All graphs show median f IQR.
(A) Light transmission aggregometry was performed using washed platelets [500 000 1/μL]. Maximum aggregation is depicted upon stimulation with CRP-XL (C) [0.1 μg/mL] and TRAP-6 [5 μM](T). (B) mean platelet volume. (C) Reticulated platelets indicated as thiazole orange (TO) positive fraction were assessed by flow cytometry. (D) GPVI-ectodomain plasma-levels measured by ELISA. (E) Platelet count. (F) SOFA-Score. All graphs show median f IQR. Differences were analyzed using Kolmogorov-Smirnov test. n.s. non-significant, *p>0.05, **p>0.01,
After centrifugation of whole blood at 152 g for 20 min, platelet rich plasma (PRP) was separated and incubated in acetylsalicylic acid (ASS) for 30 min (final concentration 2 μM). Prostaglandine E1 (1 μM) and apyrase (2 U/mL) were added and platelets were washed with modified HEPES-buffered Tyrode's solution once (1000 g, 10 min). PPP was cryopreserved for further investigation. Afterwards platelet count was adjusted to 500 000 1/μL through resuspension in re-calcified Hepes buffered Tyrode's solution (CaCl2) 2 mM). Light transmission aggregometry was performed using an APACT 4S (LABiTec, Ahrensburg, Germany) aggregometer at 37° C. stirring conditions. Maximum aggregation was assessed in percent in relation to re-calcified Hepes buffered Tyrode's solution as blank. For further molecular analysis platelets were lysed through addition of ice-cold 2× lysis buffer (NaCl150 mM, HEPES 15 mM, EGTA10 mM, Triton X-100 2%, Na3VO4 2 mM, PMSF 1 mM, Aprotinin A 1 mM, Leupeptin 1 mM, Pepstatin 1 mM).

washed platelets = assay: Immunoblot of global tyrosine phosphorylation (4G10) in platelet lysates; conditions: 0.1 μg/mL CRP-XL or 10 nM rhodocytin
Method: Washed platelets [500 000 1/μL] of healthy controls (HC) and patients (S) were stimulated with CRP-XL (C) and rhodocytin (R). Lysis was done at the following time points: C: 5 min, R: 10 min. I: admission day, II: day 5-7 and III: day of ICU discharge. (A-C) Western Blot analysis of platelet lysates. Staining was performed with anti-phospho-tyrosine antibody 4g10. 72 kDa band intensity was set in relation to signal intensity of Syk or GAPDH in arbitrary units (AU). Representative blots are shown in figures A (time point I) and B (time point III). (D-F) Phosphorylation of signaling peptides Syk and Lat was investigated by Western blot. One representative blot is shown in D. (G-J) Phosphorylation analysis of ITIM-signaling associated phosphatases SHP-1 and SHP-2. Phospho-protein intensity was set in relation to intensity of unphosphorylated protein shown in H and J. Representative Western blots are shown in G and I. All graphs display median f IQR.
After centrifugation of whole blood at 152 g for 20 min, platelet rich plasma (PRP) was separated and incubated in acetylsalicylic acid (ASS) for 30 min (final concentration 2 μM). Prostaglandine E1 (1 μM) and apyrase (2 U/mL) were added and platelets were washed with modified HEPES-buffered Tyrode's solution once (1000 g, 10 min). […] Maximum aggregation was assessed in percent in relation to re-calcified Hepes buffered Tyrode's solution as blank. […]

How did the “platelet activation (PAC-1 binding, CD62P exposure) upon stimulation” value [1] turn out when `Nc1ncnc2c1ncn2[C@@H]1O[C@H](COP(=O)(O)OP(=O)(O)O)[C@@H](O)[C@H]1O` [ADP] was run?
The value was “platelet reactivity was also highly impaired”.

What about the “platelet reactivity upon stimulation” value ([2]; 19 critically-ill Covid-19 patients, 14 days at ICU) of the same molecule?
Its value is “global hyporeactivity”.

How did the “impact on GPVI-mediated platelet reactivity (P-selectin exposure)” value (“impact … (P-selectin exposure)” for short) [3] turn out when `O=C(O)c1cn(C2CC2)c2cc(N3CCNCC3)c(F)cc2c1=O` [ciprofloxacin] was run?
The value was “none of these drugs had an impact on GPVI-mediated platelet reactivity”.

How did the “impact … (P-selectin exposure)” value [3] turn out when `Cc1ncc([N+](=O)[O-])n1CCO` [metronidazole] was run?
The value was “none of these drugs had an impact on GPVI-mediated platelet reactivity”.

Which “impact … (P-selectin exposure)” value [3] does the source give for `CN[C@H](CC(C)C)C(=O)N[C@H]1C(=O)N[C@@H](CC(N)=O)C(=O)N[C@H]2C(=O)N[C@H]3C(=O)N[C@H](C(=O)N[C@H](C(=O)O)c4cc(O)cc(O)c4-c4cc3ccc4O)[C@H](O)c3ccc(c(Cl)c3)Oc3cc2cc(c3O[C@@H]2O[C@H](CO)[C@@H](O)[C@H](O)[C@H]2O[C@H]2C[C@](C)(N)[C@H](O)[C@H](C)O2)Oc2ccc(cc2Cl)[C@H]1O` [vancomycin] here?
The value was “none of these drugs had an impact on GPVI-mediated platelet reactivity”.

Which “aggregation at last visit, discharged patients vs patients who died” value ([4]; sepsis patients) does the source give for TRAP-6 here?
Its value is “no differences”.

And the “aggregation potential, mean” value ([4]; sepsis platelets, day of ICU admission, 10 μM TRAP-6)?
Its value is 34.2%.

And the “aggregation potential, minimum” value ([4]; sepsis platelets, day of ICU admission, 10 μM TRAP-6, every studied patient)?
The value was ≥ 21.2%.

What about the “platelet reactivity upon stimulation” value [2] of the same molecule?
The value was “global hyporeactivity”.

piperacillin/tazobactam was tested. Which “impact … (P-selectin exposure)” value [3] did it give?
The value was “none of these drugs had an impact on GPVI-mediated platelet reactivity”.

B1: convulxin (protein)
chain 1: GLHCPSDWYYYDQHCYRIFNEEMNWEDAEWFCTKQAKGAHLVSIKSAKEADFVAWMVTQNIEESFSHVSIGLRVQNKEKQCSTKWSDGSSVSYDNLLDLYITKCSLLKKETGFRKWFVASCIGKIPFVCKFPPQC
chain 2: GFCCPSHWSSYDRYCYKVFKQEMTWADAEKFCTQQHTGSHLVSFHSTEEVDFVVKMTHQSLKSTFFWIGANNIWNKCNWQWSDGTKPEYKEWHEEFECLISRTFDNQWLSAPCSDTYSFVCKFEA
Which “platelet activation (PAC-1 binding, CD62P exposure) upon stimulation” value [1] does the source give for B1 here?
Its value is “impaired platelet activation was still evident, albeit to a lesser extent compared to CRP-XL”.

B2: rhodocytin: selective CLEC-2 agonist (protein)
chain 1: GLEDCDFGWSPYDQHCYQAFNEQKTWDEAEKFCRAQENGAHLASIESNGEADFVSWLISQKDELADEDYVWIGLRAQNKEQQCSSEWSDGSSVSYENLIDLHTKKCGALEKLTGFRKWVNYYCEQMHAFVCKLLPY
chain 2: DCPSGWSSYEGHCYKPFNEPKNWADAERFCKLQPKHSHLVSFQSAEEADFVVKLTRPRLKANLVWMGLSNIWHGCNWQWSDGARLNYKDWQEQSECLAFRGVHTEWLNMDCSSTCSFVCKFKA
Which results are given for B2?
platelet aggregation upon stimulation ([4]; sepsis patients vs healthy controls, time point I, CRP-XL 0.1 μg/ml, rhodocytin 10 nM): abolished aggregation was found in 5/8 patients; aggregation at last visit, discharged patients vs patients who died ([4]; sepsis patients): no differences; maximum aggregation, recovery at discharge ([4]; sepsis patients, time point III (discharge from ICU), CRP-XL 0.1 μg/ml, rhodocytin): completely recovered; induction of tyrosine phosphorylation (pTyr bands) (washed platelets; platelets of healthy donors): readily inducible in healthy donors; induction of tyrosine phosphorylation (pTyr bands) (washed platelets; platelets of sepsis patients): tyrosine phosphorylation was not inducible in platelets of sepsis patients
